Legend:
Assay in all cases: Anti-SARS-CoV-2 activity against VOCs, WST-8 assay in VeroE6 cells
Type in all cases: cell-based
Details in all cases: one range stated for beta, gamma and omicron
SARS-CoV-2^929 (Omicron) = system: SARS-CoV-2^929 (Omicron)
SARS-CoV-2^TY7 (Gamma) = system: SARS-CoV-2^TY7 (Gamma)
SARS-CoV-2^TY8 (Beta) = system: SARS-CoV-2^TY8 (Beta)

CC(C)(C)[C@H](NC(=O)C(Cl)(Cl)Cl)C(=O)N1C[C@H]2[C@@H]([C@H]1C(=O)N[C@H](C#N)C[C@@H]1CCCNC1=O)C2(C)C [Compound 5f, (1R,2S,5S)-N-((S)-1-Cyano-2-((S)-2-oxopiperidin-3-yl)ethyl)-3-((S)-3,3-dimethyl-2-(2,2,2-trichloroacetamido)butanoyl)-6,6-dimethyl-3-azabicyclo[3.1.0]hexane-2-carboxamide]
3–5 fold: loss of antiviral activity against omicron variant (SARS-CoV-2^929 (Omicron)) | loss of antiviral activity against gamma variant (SARS-CoV-2^TY7 (Gamma)) | loss of antiviral activity against beta variant (SARS-CoV-2^TY8 (Beta))

— publication PMC10964431 (European journal of medicinal chemistry, 2024)
